According to ChEMBL document CHEMBL1201862, “PubChem BioAssay data set” (2004):
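Where inhibition never reached the appropriate level, the endpoint shown equals the highest concentration tested. Otherwise, values were interpolated linearly from a five-concentration, 48-hour dose response in 96-well plates. At the GI50, growth is halved.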 Active and inactive are the calls of the source. Cut-off read from the data, not from the text of the source: active = GI50 up to about 1.1 µM and inactive = higher.

Columns and labels:
Experiment in all cases: growth of human tumour cells (NCI), 48 h
MOLT-4 = system: MOLT-4
Malme-3M = system: Malme-3M
LOX IMVI = system: LOX IMVI
EKVX = system: EKVX
NCI/ADR-RES = system: NCI/ADR-RES
OVCAR-5 = system: OVCAR-5
MCF7 = system: MCF7
COLO 205 = system: COLO 205
SF-268 = system: SF-268
786-0 = system: 786-0
SK-MEL-2 = system: SK-MEL-2
DU-145 = system: DU-145
M14 = system: M14
NCI-H460 = system: NCI-H460
HL-60 = system: HL-60
MDA-N = system: MDA-N
SF-539 = system: SF-539
OVCAR-4 = system: OVCAR-4
BT-549 = system: BT-549
RXF 393 = system: RXF 393

Measured: GI50

CN1C(=O)NC(=O)/C(=C\Nc2ncccn2)C1=O
inactive: MOLT-4 > 100 µM | Malme-3M > 100 µM | LOX IMVI > 100 µM | EKVX > 100 µM | NCI/ADR-RES > 100 µM | OVCAR-5 > 100 µM | MCF7 > 100 µM | COLO 205 > 100 µM | SF-268 > 100 µM | 786-0 > 100 µM | SK-MEL-2 > 100 µM | DU-145 > 100 µM | M14 > 100 µM | NCI-H460 > 100 µM | HL-60 > 100 µM | MDA-N > 100 µM | SF-539 > 100 µM | OVCAR-4 > 100 µM

c1ccc2c(c1)Sc1ccccc1N2CC1CN2CCC1CC2 (stereo not drawn) [MEQUITAZINE]
inactive: BT-549 14.5 µM | MOLT-4 3.42 µM | Malme-3M 1.94 µM | LOX IMVI 3.08 µM | EKVX 11.4 µM | RXF 393 2.31 µM | NCI/ADR-RES 11.1 µM | OVCAR-5 11.7 µM | MCF7 3.4 µM | COLO 205 1.69 µM | SF-268 7.36 µM | 786-0 6.24 µM | SK-MEL-2 3.32 µM | DU-145 6.73 µM | M14 1.87 µM | NCI-H460 3.26 µM | HL-60 3.57 µM | SF-539 8.32 µM | OVCAR-4 6.5 µM

CCOC(=O)c1c(SC(=O)c2ccc(Cl)cc2)n(-c2ccccc2)c(=S)n(-c2ccccc2)c1=O
inactive: MOLT-4 > 100 µM | Malme-3M > 100 µM | LOX IMVI > 100 µM | EKVX > 100 µM | RXF 393 > 100 µM | NCI/ADR-RES > 100 µM | OVCAR-5 > 100 µM | MCF7 > 100 µM | COLO 205 > 100 µM | SF-268 > 100 µM | 786-0 > 100 µM | DU-145 > 100 µM | M14 > 100 µM | NCI-H460 > 100 µM | HL-60 > 100 µM | MDA-N > 100 µM | SF-539 > 100 µM | OVCAR-4 > 100 µM

CC(C)CCn1nc(N)c2nc3ccccc3nc21
inactive: BT-549 > 100 µM | MOLT-4 26.3 µM | Malme-3M > 100 µM | LOX IMVI > 100 µM | EKVX > 100 µM | RXF 393 > 100 µM | NCI/ADR-RES > 100 µM | OVCAR-5 > 100 µM | MCF7 72.8 µM | SF-268 > 100 µM | 786-0 > 100 µM | SK-MEL-2 > 100 µM | M14 > 100 µM | NCI-H460 57 µM | HL-60 41.6 µM | MDA-N > 100 µM | SF-539 > 100 µM | OVCAR-4 > 100 µM

CCN(CC)CCN1C(=O)C(=O)N(c2cccc3ccccc23)C1=O
inactive: MOLT-4 > 10 µM | Malme-3M > 10 µM | LOX IMVI > 10 µM | EKVX > 10 µM | RXF 393 > 10 µM | NCI/ADR-RES > 10 µM | OVCAR-5 > 10 µM | MCF7 > 10 µM | COLO 205 > 10 µM | SF-268 > 10 µM | SK-MEL-2 > 10 µM | DU-145 > 10 µM | M14 > 10 µM | NCI-H460 > 10 µM | HL-60 > 10 µM | MDA-N > 10 µM | SF-539 > 10 µM | OVCAR-4 > 10 µM

[O-][S+](Nc1ccccc1)c1ccccc1Oc1ccccc1 (stereo not drawn)
inactive: MOLT-4 19.1 µM | Malme-3M 30.5 µM | LOX IMVI 19.7 µM | EKVX 26 µM | RXF 393 48.2 µM | NCI/ADR-RES 27.5 µM | OVCAR-5 > 100 µM | MCF7 60 µM | COLO 205 > 100 µM | SF-268 16.3 µM | 786-0 24.7 µM | DU-145 > 100 µM | M14 24.5 µM | NCI-H460 35.3 µM | HL-60 25.5 µM | MDA-N 57.1 µM | SF-539 14.6 µM

COc1ccc(NC(=S)Nc2cc(C)ccn2)cc1
inactive: BT-549 > 100 µM | MOLT-4 > 100 µM | LOX IMVI > 100 µM | EKVX > 100 µM | RXF 393 > 100 µM | NCI/ADR-RES 28.6 µM | MCF7 > 100 µM | COLO 205 > 100 µM | SF-268 > 100 µM | 786-0 > 100 µM | SK-MEL-2 > 100 µM | DU-145 > 100 µM | NCI-H460 > 100 µM | HL-60 > 100 µM | SF-539 > 100 µM | OVCAR-4 > 100 µM

O=C(OC(=O)n1ccc2ccccc21)n1ccc2ccccc21
inactive: MOLT-4 > 100 µM | LOX IMVI > 100 µM | EKVX > 100 µM | RXF 393 > 100 µM | NCI/ADR-RES > 100 µM | OVCAR-5 > 100 µM | MCF7 > 100 µM | COLO 205 > 100 µM | SF-268 > 100 µM | SK-MEL-2 > 100 µM | NCI-H460 > 100 µM | HL-60 > 100 µM | SF-539 > 100 µM | OVCAR-4 > 100 µM
